Reference: patent publication US20230085307A1, “PYRIDAZINONE COMPOUND AND HERBICIDE” (NISSAN CHEMICAL CORPORATION, priority 2019, published 2023)

Experiments:
[1] = system: late watergrass; test: Test Example 1: herbicidal activity, application before weed generation under submerged conditions (Table 16, symbol A); format: in vivo, late watergrass (Echinochloa oryzicola); details: amount of applied herbicide 320 g/ha
Method in brief: (§1)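 Alluvial soil was flooded to 4 cm depth, weed seeds were sown mixed and 2.5-leaf rice seedlings were transplanted. On sowing day, the compound's emulsion, diluted in water to a set dose, was applied to the water surface. Plants grew at 25–30 °C and were scored 0–5 after three weeks.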

[2] = system: Japanese bulrush; test: Test Example 1: herbicidal activity, application before weed generation under submerged conditions (Table 16, symbol B); format: in vivo, Japanese bulrush (Schoenoplectus juncoides); details: amount of applied herbicide 320 g/ha
Method in brief: as §1

[3] = system: Japanese bulrush; test: Test Example 2: herbicidal activity, application during weed generation under submerged conditions (Table 17, symbol B); format: in vivo, Japanese bulrush (Schoenoplectus juncoides); details: AAH 320 g/ha; application during weed generation, submerged conditions
Method in brief: (§2)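 Herbicide emulsion, diluted with water to the chosen amount, is applied onto 4 cm floodwater over alluvial soil where the weeds were co-sown and raised at 25–30° C. Application timing: 1–2 leaves. Assessment: three weeks afterwards.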

[4] = system: oval-leafed pondweed; test: Test Example 2: herbicidal activity, application during weed generation under submerged conditions (Table 17, symbol C); format: in vivo, oval-leafed pondweed (Monochoria vaginalis); details: AAH 320 g/ha; application during weed generation, submerged conditions
Method in brief: as §2

[5] = system: green foxtail; test: Test Example 4: herbicidal effect by soil treatment (Table 19, symbol G); format: in vivo, green foxtail (Setaria viridis); details: amount of applied herbicide 320 g/ha
Method in brief: (§3)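 Applied as a water-diluted emulsion, the compound was sprayed onto soil covering newly sown seeds. Evaluation came three weeks after application, in a greenhouse held at 25° C. to 30° C.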

[6] = system: wild oat; test: Test Example 4: herbicidal effect by soil treatment (Table 19, symbol I); format: in vivo, wild oat (Avena fatua); details: amount of applied herbicide 320 g/ha
Method in brief: as §3

[7] = system: blackgrass; test: Test Example 4: herbicidal effect by soil treatment (Table 19, symbol J); format: in vivo, blackgrass (Alopecurus myosuroides); details: amount of applied herbicide 320 g/ha
Method in brief: as §3

[8] = system: Italian ryegrass; test: Test Example 4: herbicidal effect by soil treatment (Table 19, symbol K); format: in vivo, Italian ryegrass (Lolium multiflorum); details: amount of applied herbicide 320 g/ha
Method in brief: as §3

[9] = system: velvetleaf; test: Test Example 4: herbicidal effect by soil treatment (Table 19, symbol M); format: in vivo, velvetleaf (Abutilon theophrasti); details: amount of applied herbicide 320 g/ha
Method in brief: as §3

[10] = system: redroot pigweed; test: Test Example 4: herbicidal effect by soil treatment (Table 19, symbol N); format: in vivo, redroot pigweed (Amaranthus retroflexus); details: amount of applied herbicide 320 g/ha
Method in brief: as §3

[11] = system: lambsquarters; test: Test Example 4: herbicidal effect by soil treatment (Table 19, symbol O); format: in vivo, lambsquarters (Chenopodium album); details: amount of applied herbicide 320 g/ha
Method in brief: as §3

[12] = system: persian speedwell; test: Test Example 4: herbicidal effect by soil treatment (Table 19, symbol R); format: in vivo, Persian speedwell (Veronica persica); details: amount of applied herbicide 320 g/ha
Method in brief: as §3

[13] = system: southern crabgrass; test: Test Example 5: herbicidal effect by foliage application, plastic box (Table 20, symbol F); format: in vivo, southern crabgrass (Digitaria ciliaris); details: 320 g/ha; for F: southern crabgrass, herbicidal effect grade: foliage application, three weeks after application
Method in brief: (§4)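 Sow seeds spot-wise in sterilized diluvial soil; cover with ~1.5 cm soil. Grow 14 days in greenhouse, 25° C. to 30° C. Spray foliage with emulsion diluted to predetermined amount. Rate effect after 3 weeks.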

[14] = system: green foxtail; test: Test Example 5: herbicidal effect by foliage application, plastic box (Table 20, symbol G); format: in vivo, green foxtail (Setaria viridis); details: 320 g/ha; for G: green foxtail, herbicidal effect grade: foliage application, three weeks after application
Method in brief: as §4

[15] = system: barnyard grass; test: Test Example 5: herbicidal effect by foliage application, plastic box (Table 20, symbol H); format: in vivo, barnyard grass (Echinochloa crus-galli); details: 320 g/ha; for H: barnyard grass, herbicidal effect grade: foliage application, three weeks after application
Method in brief: as §4

[16] = system: wild oat; test: Test Example 5: herbicidal effect by foliage application, plastic box (Table 20, symbol I); format: in vivo, wild oat (Avena fatua); details: 320 g/ha; for I: wild oat, herbicidal effect grade: foliage application, three weeks after application
Method in brief: as §4

[17] = system: blackgrass; test: Test Example 5: herbicidal effect by foliage application, plastic box (Table 20, symbol J); format: in vivo, blackgrass (Alopecurus myosuroides); details: 320 g/ha; for J: blackgrass, herbicidal effect grade: foliage application, three weeks after application
Method in brief: as §4

[18] = system: Italian ryegrass; test: Test Example 5: herbicidal effect by foliage application, plastic box (Table 20, symbol K); format: in vivo, Italian ryegrass (Lolium multiflorum); details: 320 g/ha; for K: Italian ryegrass, herbicidal effect grade: foliage application, three weeks after application
Method in brief: as §4

[19] = system: windgrass; test: Test Example 5: herbicidal effect by foliage application, plastic box (Table 20, symbol L); format: in vivo, windgrass (Apera spica-venti); details: 320 g/ha; for L: windgrass, herbicidal effect grade: foliage application, three weeks after application
Method in brief: as §4

[20] = system: velvetleaf; test: Test Example 5: herbicidal effect by foliage application, plastic box (Table 20, symbol M); format: in vivo, velvetleaf (Abutilon theophrasti); details: 320 g/ha; for M: velvetleaf, herbicidal effect grade: foliage application, three weeks after application
Method in brief: as §4

[21] = system: chickweed; test: Test Example 5: herbicidal effect by foliage application, plastic box (Table 20, symbol P); format: in vivo, common chickweed (Stellaria media); details: 320 g/ha; for P: chickweed, herbicidal effect grade: foliage application, three weeks after application
Method in brief: as §4

[22] = foliage application after 14-day growth, evaluated three weeks after application

Compound | Herbicidal effect, A: late watergrass [1] | Herbicidal effect, B: Japanese bulrush [2] | herbicidal effect rating, B: Japanese bulrush [3] | herbicidal effect rating, C: oval-leafed pondweed [4] | G: green foxtail, herbicidal effect grade [5] | I: wild oat, herbicidal effect grade [6] | J: blackgrass, herbicidal effect grade [7] | K: Italian ryegrass, herbicidal effect grade [8] | M: velvetleaf, herbicidal effect grade [9] | N: redroot pigweed, herbicidal effect grade [10] | O: lambsquarters, herbicidal effect grade [11] | R: persian speedwell, herbicidal effect grade [12] | F: southern crabgrass, herbicidal effect grade [13] | G: green foxtail, herbicidal effect grade [14] | H: barnyard grass, herbicidal effect grade [15] | I: wild oat, herbicidal effect grade [16] | J: blackgrass, herbicidal effect grade [17] | K: Italian ryegrass, herbicidal effect grade [18] | L: windgrass, herbicidal effect grade [19] | M: velvetleaf, herbicidal effect grade [20] | other results
Cc1nn(C)c(=O)c(-c2c(-c3ccc(Cl)c(F)c3)sc3c(F)cccc23)c1O [4-054] | 3 (Herbicidal rate of 40% or more and less than 70%) | 3 (Herbicidal rate of 40% or more and less than 70%) | 2 (Herbicidal rate of 20% or more and less than 40%) | 0 (Herbicidal rate of 5% or less (almost no effect)) | – | – | – | – | – | – | – | – | – | – | – | – | – | – | – | – | Herbicidal effect by soil treatment, G: green foxtail [5]: 0 (Herbicidal rate of 5% or less (almost no effect)); Herbicidal effect by soil treatment, I: wild oat [6]: 0 (Herbicidal rate of 5% or less (almost no effect)); Herbicidal effect by soil treatment, J: blackgrass [7]: 0 (Herbicidal rate of 5% or less (almost no effect)); Herbicidal effect by soil treatment, K: Italian ryegrass [8]: 0 (Herbicidal rate of 5% or less (almost no effect)); Herbicidal effect by soil treatment, M: velvetleaf [9]: 0 (Herbicidal rate of 5% or less (almost no effect)); Herbicidal effect by soil treatment, N: redroot pigweed [10]: 2 (Herbicidal rate of 20% or more and less than 40%); Herbicidal effect by soil treatment, O: lambsquarters [11]: 1 (Herbicidal rate of 5% or more and less than 20%); Herbicidal effect by soil treatment, R: persian speedwell [12]: 4 (Herbicidal rate of 70% or more and less than 90%); herbicidal effect on F: southern crabgrass (evaluation grade 0-5) [13, 22]: 2 (Herbicidal rate of 20% or more and less than 40%); herbicidal effect on G: green foxtail (evaluation grade 0-5) [14, 22]: 3 (Herbicidal rate of 40% or more and less than 70%); herbicidal effect on H: barnyard grass (evaluation grade 0-5) [15, 22]: 4 (Herbicidal rate of 70% or more and less than 90%); herbicidal effect on I: wild oat (evaluation grade 0-5) [16, 22]: 0 (Herbicidal rate of 5% or less (almost no effect)); herbicidal effect on J: blackgrass (evaluation grade 0-5) [17, 22]: 0 (Herbicidal rate of 5% or less (almost no effect)); herbicidal effect on K: Italian ryegrass (evaluation grade 0-5) [18, 22]: 1 (Herbicidal rate of 5% or more and less than 20%); herbicidal effect on L: windgrass (evaluation grade 0-5) [19, 22]: 0 (Herbicidal rate of 5% or less (almost no effect)); herbicidal effect on M: velvetleaf (evaluation grade 0-5) [20, 22]: 5 (Herbicidal rate of 90% or more (almost completely withered)); herbicidal effect on P: chickweed (evaluation grade 0-5) [21, 22]: 5 (Herbicidal rate of 90% or more (almost completely withered))
CCOc1ccccc1-c1sc2cc(OC)ccc2c1-c1c(O)c(C)nn(CC)c1=O [3-085] | 5 (Herbicidal rate of 90% or more (almost completely withered)) | 5 (Herbicidal rate of 90% or more (almost completely withered)) | 3 (Herbicidal rate of 40% or more and less than 70%) | 3 (Herbicidal rate of 40% or more and less than 70%) | 3 (Herbicidal rate of 40% or more and less than 70%) | 0 (Herbicidal rate of 5% or less (almost no effect)) | 1 (Herbicidal rate of 5% or more and less than 20%) | 0 (Herbicidal rate of 5% or less (almost no effect)) | 0 (Herbicidal rate of 5% or less (almost no effect)) | 3 (Herbicidal rate of 40% or more and less than 70%) | 3 (Herbicidal rate of 40% or more and less than 70%) | 5 (Herbicidal rate of 90% or more (almost completely withered)) | 5 (Herbicidal rate of 90% or more (almost completely withered)) | 4 (Herbicidal rate of 70% or more and less than 90%) | 4 (Herbicidal rate of 70% or more and less than 90%) | 4 (Herbicidal rate of 70% or more and less than 90%) | 4 (Herbicidal rate of 70% or more and less than 90%) | 0 (Herbicidal rate of 5% or less (almost no effect)) | 4 (Herbicidal rate of 70% or more and less than 90%) | 5 (Herbicidal rate of 90% or more (almost completely withered)) | P: chickweed, herbicidal effect grade [21]: 5 (Herbicidal rate of 90% or more (almost completely withered))
CCCCOc1ccc2c(-c3c(O)c(C)nn(C)c3=O)c(-c3ccccc3OC)sc2c1 [3-105] | 5 (Herbicidal rate of 90% or more (almost completely withered)) | 5 (Herbicidal rate of 90% or more (almost completely withered)) | 3 (Herbicidal rate of 40% or more and less than 70%) | 4 (Herbicidal rate of 70% or more and less than 90%) | 3 (Herbicidal rate of 40% or more and less than 70%) | 0 (Herbicidal rate of 5% or less (almost no effect)) | 0 (Herbicidal rate of 5% or less (almost no effect)) | 5 (Herbicidal rate of 90% or more (almost completely withered)) | 0 (Herbicidal rate of 5% or less (almost no effect)) | 4 (Herbicidal rate of 70% or more and less than 90%) | 3 (Herbicidal rate of 40% or more and less than 70%) | 5 (Herbicidal rate of 90% or more (almost completely withered)) | 5 (Herbicidal rate of 90% or more (almost completely withered)) | 5 (Herbicidal rate of 90% or more (almost completely withered)) | 4 (Herbicidal rate of 70% or more and less than 90%) | 4 (Herbicidal rate of 70% or more and less than 90%) | 5 (Herbicidal rate of 90% or more (almost completely withered)) | 5 (Herbicidal rate of 90% or more (almost completely withered)) | 5 (Herbicidal rate of 90% or more (almost completely withered)) | 5 (Herbicidal rate of 90% or more (almost completely withered)) | P: chickweed, herbicidal effect grade [21]: 5 (Herbicidal rate of 90% or more (almost completely withered))
